Common to all, as to test: relative viability (nuclei count vs DMSO), 5 days (fraction); higher = more cells survive
Compound in test [1]: CC[C@H](Nc1ncnc2[nH]cnc12)c1nc2cccc(F)c2c(=O)n1-c1ccccc1 [Idelalisib] + Nc1ncn([C@H]2C[C@H](O)[C@@H](CO)O2)c(=O)n1 [Decitabine] (partner 2 µM)
In outline: (§1)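 For relative viability, nuclei counts in treated wells were divided by those in vehicle wells. Lung cancer cell lines had been pin-tool dosed in 1536-well plates the day after seeding and cultured for 5 days, then fixed and stained in one step (final 0.05% Triton X-100, 1% formaldehyde, 1 ug/ml Hoechst) and imaged at 4×. Doses were one drug alone or a fixed anchor-drug dose plus five library-drug doses (not always all listed) in √10 steps, and values are duplicate-plate medians.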

Compound in test [2]: CC[C@H](Nc1ncnc2[nH]cnc12)c1nc2cccc(F)c2c(=O)n1-c1ccccc1 [Idelalisib] + COc1cc2c(Oc3ccc(NC(=O)C4(C(=O)Nc5ccc(F)cc5)CC4)cc3F)ccnc2cc1OCCCN1CCOCC1 [Foretinib] (partner 0.25 µM)
In outline:
as §1

Compound in test [3]: Nc1nc2[nH]cc(CCc3ccc(C(=O)N[C@@H](CCC(=O)O)C(=O)O)cc3)c2c(=O)[nH]1 [Pemetrexed] + CS(=O)(=O)CCNCc1ccc(-c2ccc3ncnc(Nc4ccc(OCc5cccc(F)c5)c(Cl)c4)c3c2)o1 [Lapatinib] (partner 2 µM)
In outline: as §1

Compound in test [4]: Nc1nc2[nH]cc(CCc3ccc(C(=O)N[C@@H](CCC(=O)O)C(=O)O)cc3)c2c(=O)[nH]1 [Pemetrexed] + CS(=O)(=O)N1CCN(Cc2cc3nc(-c4cccc5[nH]ncc45)nc(N4CCOCC4)c3s2)CC1 [Pictilisib] (partner 1 µM)
The procedure, abridged: as §1

As to SW 900, the relative viability in test [1] (first compound 0.04 µM) came out at 0.387; in test [1] (first compound 0.1265 µM), 0.415; in test [1] (first compound 0.4 µM), 0.505; in test [1] (first compound 1.265 µM), 0.498; in test [1] (first compound 4 µM), 0.377; in test [2] (first compound 0.04 µM), 0.796. Also, the relative viability is 1.14 in test [2] (first compound 0.1265 µM), 0.869 in test [2] (first compound 0.4 µM), 0.766 in test [2] (first compound 1.265 µM) and 0.563 in test [2] (first compound 4 µM).

For NCI-H1648, the relative viability in test [1] (first compound 0.04 µM) turned out to be 0.512; in test [1] (first compound 0.1265 µM) it was 0.58; in test [1] (first compound 0.4 µM), 0.536; in test [1] (first compound 1.265 µM) it was 0.507; in test [1] (first compound 4 µM) it was 0.429.

Take NCI-H1563: the relative viability in test [3] (first compound 0.002 µM) was 0.83; in test [3] (first compound 0.006325 µM), 0.804; in test [3] (first compound 0.02 µM), 0.921; in test [3] (first compound 0.06325 µM) it was 0.971; in test [3] (first compound 0.2 µM), 0.986; in test [4] (first compound 0.002 µM), 0.705. The relative viability in test [4] (first compound 0.006325 µM) was 0.609; in test [4] (first compound 0.02 µM), 0.665; in test [4] (first compound 0.06325 µM), 0.634; in test [4] (first compound 0.2 µM), 0.625; in test [2] (first compound 0.04 µM), 0.969; in test [2] (first compound 0.1265 µM) it was 0.941. Also, the relative viability was 0.873 in test [2] (first compound 0.4 µM), 0.877 in test [2] (first compound 1.265 µM) and 0.788 in test [2] (first compound 4 µM).

LCLC-103H: the relative viability in test [1] (first compound 0.04 µM) is 0.693; in test [1] (first compound 0.1265 µM) it was 0.707; in test [1] (first compound 0.4 µM) it was 0.692; in test [1] (first compound 1.265 µM), 0.795; in test [1] (first compound 4 µM), 0.679; in test [4] (first compound 0.002 µM), 0.639. The relative viability in test [4] (first compound 0.006325 µM) amounted to 0.588; in test [4] (first compound 0.02 µM), 0.714; in test [4] (first compound 0.06325 µM) it was 0.61; in test [4] (first compound 0.2 µM), 0.669; in test [2] (first compound 0.04 µM), 0.727; in test [2] (first compound 0.1265 µM), 0.728. The relative viability in test [2] (first compound 0.4 µM) was determined as 0.65; in test [2] (first compound 1.265 µM), 0.829; in test [2] (first compound 4 µM), 0.582.

For the cell line NCI-H2342, the relative viability was determined as 0.802 in test [1] (first compound 0.04 µM); 0.764 in test [1] (first compound 0.1265 µM); 0.658 in test [1] (first compound 0.4 µM); 0.668 in test [1] (first compound 1.265 µM); 0.618 in test [1] (first compound 4 µM); 1.02 in test [2] (first compound 0.04 µM). Further, the relative viability in test [2] (first compound 0.1265 µM) came out at 1.11; in test [2] (first compound 0.4 µM), 0.886; in test [2] (first compound 1.265 µM), 0.896; in test [2] (first compound 4 µM), 0.729.

In the case of ChaGo-K-1, the relative viability in test [1] (first compound 0.04 µM) was found to be 0.515; in test [1] (first compound 0.1265 µM), 0.404; in test [1] (first compound 0.4 µM), 0.524; in test [1] (first compound 1.265 µM) it was 0.538; in test [1] (first compound 4 µM), 0.46; in test [4] (first compound 0.002 µM), 0.609. Besides, the relative viability came to 0.793 in test [4] (first compound 0.006325 µM); 0.597 in test [4] (first compound 0.02 µM); 0.224 in test [4] (first compound 0.06325 µM); 0.28 in test [4] (first compound 0.2 µM); 1.02 in test [2] (first compound 0.04 µM); 0.919 in test [2] (first compound 0.1265 µM). The relative viability in test [2] (first compound 0.4 µM) worked out at 0.766; in test [2] (first compound 1.265 µM), 0.931; in test [2] (first compound 4 µM), 0.82.

Consider NCI-H441, for which the relative viability in test [1] (first compound 0.04 µM) came out at 0.313; in test [1] (first compound 0.1265 µM) it was 0.235; in test [1] (first compound 1.265 µM), 0.267; in test [1] (first compound 4 µM), 0.187; in test [4] (first compound 0.002 µM), 0.46; in test [4] (first compound 0.006325 µM) it was 0.463. For the same cell line, the relative viability worked out at 0.595 in test [4] (first compound 0.02 µM); 0.322 in test [4] (first compound 0.06325 µM); 0.268 in test [4] (first compound 0.2 µM); 1.15 in test [2] (first compound 0.04 µM); 1.09 in test [2] (first compound 0.1265 µM); 1.05 in test [2] (first compound 0.4 µM). Moreover, the relative viability in test [2] (first compound 1.265 µM) amounted to 1.11; in test [2] (first compound 4 µM) it was 1.2.

With Calu-6, the relative viability in test [3] (first compound 0.002 µM) was 1.09; in test [3] (first compound 0.006325 µM) it was 1.02; in test [3] (first compound 0.02 µM), 1.18; in test [3] (first compound 0.06325 µM), 0.999; in test [3] (first compound 0.2 µM), 0.84; in test [4] (first compound 0.002 µM) it was 0.876. Besides, the relative viability came out at 0.911 in test [4] (first compound 0.006325 µM); 0.978 in test [4] (first compound 0.02 µM); 0.903 in test [4] (first compound 0.06325 µM); 0.785 in test [4] (first compound 0.2 µM); 0.895 in test [2] (first compound 0.04 µM); 0.909 in test [2] (first compound 0.1265 µM). Also, the relative viability was 0.844 in test [2] (first compound 0.4 µM), 0.894 in test [2] (first compound 1.265 µM) and 0.767 in test [2] (first compound 4 µM).

Regarding NCI-H1299, the relative viability in test [3] (first compound 0.002 µM) came out at 0.926; in test [3] (first compound 0.006325 µM), 0.92; in test [3] (first compound 0.02 µM), 0.964; in test [3] (first compound 0.06325 µM), 0.955; in test [3] (first compound 0.2 µM), 0.918; in test [4] (first compound 0.002 µM), 0.86. The relative viability in test [4] (first compound 0.006325 µM) worked out at 0.724; in test [4] (first compound 0.02 µM), 1.06; in test [4] (first compound 0.06325 µM), 0.762; in test [4] (first compound 0.2 µM), 0.536; in test [2] (first compound 0.04 µM) it was 1.14; in test [2] (first compound 0.1265 µM), 1.16. In addition, the values for the relative viability in test [2] (first compound 0.4 µM), in test [2] (first compound 1.265 µM) and in test [2] (first compound 4 µM) were 1.11, 1.16 and 1.2, respectively.

Turning to NCI-H2228, the relative viability turned out to be 0.928 in test [3] (first compound 0.002 µM); 0.854 in test [3] (first compound 0.006325 µM); 1.4 in test [3] (first compound 0.02 µM); 0.784 in test [3] (first compound 0.06325 µM); 0.379 in test [3] (first compound 0.2 µM); 0.194 in test [4] (first compound 0.002 µM). Moreover, the relative viability in test [4] (first compound 0.006325 µM) stood at 0.427; in test [4] (first compound 0.02 µM), 0.379; in test [4] (first compound 0.06325 µM), 0.35; in test [4] (first compound 0.2 µM), 0.238; in test [2] (first compound 0.04 µM), 0.874; in test [2] (first compound 0.1265 µM), 0.835. Besides, the relative viability in test [2] (first compound 0.4 µM) is 0.614; in test [2] (first compound 1.265 µM), 0.87; in test [2] (first compound 4 µM), 0.788.

Take EBC-1: the relative viability worked out at 0.22 in test [3] (first compound 0.002 µM); 0.193 in test [3] (first compound 0.006325 µM); 0.205 in test [3] (first compound 0.02 µM); 0.214 in test [3] (first compound 0.06325 µM); 0.192 in test [3] (first compound 0.2 µM); 0.341 in test [4] (first compound 0.002 µM). Besides, the relative viability is 0.346 in test [4] (first compound 0.006325 µM); 0.395 in test [4] (first compound 0.02 µM); 0.337 in test [4] (first compound 0.06325 µM); 0.339 in test [4] (first compound 0.2 µM); 0.0986 in test [2] (first compound 0.04 µM); 0.0952 in test [2] (first compound 0.1265 µM). Further, the relative viability in test [2] (first compound 0.4 µM) stood at 0.0971; in test [2] (first compound 1.265 µM), 0.107; in test [2] (first compound 4 µM), 0.0962.

Values taken from the supplement of paper PMC10307832.
